Measured values reported in ChEMBL document CHEMBL5678816, “A Next-Generation TRK Kinase Inhibitor Overcomes Acquired Resistance to Prior TRK Kinase Inhibition in Patients with TRK Fusion-Positive Solid Tumors” (Cancer Discov, 2017).
Activity calls are given as the source filed them. No cut-off for these calls is given here.

What was measured:
[1] = Inhibition of N-terminal 3FLAG-tagged ETV6-TRKC G696A mutant (unknown origin) expressed in NIH3T3 cells assessed as ERK1/2 phosphorylation incubated for 1 hrs by flow cytometric analysis; type: cell-based, Homo sapiens
[2] = system: NIH3T3; assay: In vivo inhibition of […] in nu/nu NCr mouse implanted with mouse NIH3T3 cells harboring extracellular domain deleted […] assessed as reduction in […] phosphorylation at 10 to 100 mg/kg, po administered twice daily for 3 days and measured after 2 hrs post last dose by ELISA; type: functional, organism-based; conditions: dose 10-100 mg/kg, time 3.0 day
[3] = system: MCF7; assay: Inhibition of cell proliferation in human MCF7 cells upto 10 umol/L incubated for 72 hrs by DAPI staining based analysis; type: functional; conditions: dose <= 10.0 µmol/L
[4] = system: DMS-114; assay: Inhibition of cell proliferation in human DMS-114 cells upto 10 umol/L incubated for 72 hrs by DAPI staining based analysis; type: functional; conditions: dose <= 10.0 µmol/L
[5] = system: MG-63; assay: Inhibition of cell proliferation in human MG-63 cells upto 10 umol/L incubated for 72 hrs by DAPI staining based analysis; type: functional; conditions: dose <= 10.0 µmol/L
[6] = system: MIA PaCa-2; assay: Inhibition of cell proliferation in human MIA PaCa-2 cells upto 10 umol/L incubated for 72 hrs by DAPI staining based analysis; type: functional; conditions: dose <= 10.0 µmol/L
[7] = system: AU565; assay: Inhibition of cell proliferation in human AU565 cells upto 10 umol/L incubated for 72 hrs by DAPI staining based analysis; type: functional; conditions: dose <= 10.0 µmol/L
[8] = system: MZ-CRC-1; assay: Inhibition of cell proliferation in human MZ-CRC-1 cells upto 10 umol/L incubated for 72 hrs by DAPI staining based analysis; type: functional; conditions: dose <= 10.0 µmol/L
[9] = system: SNU-16; assay: Inhibition of cell proliferation in human SNU-16 cells upto 10 umol/L incubated for 72 hrs by DAPI staining based analysis; type: functional; conditions: dose <= 10.0 µmol/L
[10] = system: J82; assay: Inhibition of cell proliferation in human J82 cells upto 10 umol/L incubated for 72 hrs by DAPI staining based analysis; type: functional; conditions: dose <= 10.0 µmol/L
[11] = target: Tyrosine-protein kinase ITK/TSK (Homo sapiens) (UniProt Q08881); assay: Inhibition of ITK (unknown origin) at 1 uM in presence of ATP relative to control; values are per cent of control
[12] = target: Myotonin-protein kinase (Homo sapiens) (UniProt Q09013); assay: Inhibition of DMPK (unknown origin) at 1 uM in presence of ATP relative to control; values are per cent of control
[13] = target: G protein-coupled receptor kinase 5 (Homo sapiens) (UniProt P34947); assay: Inhibition of GRK5 (unknown origin) at 1 uM in presence of ATP relative to control; values are per cent of control
[14] = target: Rhodopsin kinase GRK7 (Homo sapiens) (UniProt Q8WTQ7); assay: Inhibition of GRK7 (unknown origin) at 1 uM in presence of ATP relative to control; values are per cent of control
[15] = target: Serine/threonine-protein kinase Nek3 (Homo sapiens) (UniProt P51956); assay: Inhibition of NEK3 (unknown origin) at 1 uM in presence of ATP relative to control; values are per cent of control
[16] = target: Serine/threonine-protein kinase Nek7 (Homo sapiens) (UniProt Q8TDX7); assay: Inhibition of NEK7 (unknown origin) at 1 uM in presence of ATP relative to control; values are per cent of control
[17] = target: Serine/threonine-protein kinase TAO3 (Homo sapiens) (UniProt Q9H2K8); assay: Inhibition of TAO3 (unknown origin) at 1 uM in presence of ATP relative to control; values are per cent of control
[18] = target: Protein-tyrosine kinase 2-beta (Homo sapiens) (UniProt Q14289); assay: Inhibition of FAK2 (unknown origin) at 1 uM in presence of ATP relative to control; values are per cent of control
[19] = target: Death-associated protein kinase 1 (Homo sapiens) (UniProt P53355); assay: Inhibition of DAPK1 (unknown origin) at 1 uM in presence of ATP relative to control; values are per cent of control
[20] = target: Serine/threonine-protein kinase MARK1 (Homo sapiens) (UniProt Q9P0L2); assay: Inhibition of MARK1 (unknown origin) at 1 uM in presence of ATP relative to control; values are per cent of control
[21] = target: MAP kinase-interacting serine/threonine-protein kinase 2 (Homo sapiens) (UniProt Q9HBH9); assay: Inhibition of MKNK2 (unknown origin) at 1 uM in presence of ATP relative to control; values are per cent of control
[22] = target: Aurora kinase A (Homo sapiens) (UniProt O14965); assay: Inhibition of AURKA (unknown origin) at 1 uM in presence of ATP relative to control; values are per cent of control
[23] = target: Ephrin type-B receptor 4 (Homo sapiens) (UniProt P54760); assay: Inhibition of EphB4 (unknown origin) at 1 uM in presence of ATP relative to control; values are per cent of control
[24] = target: RAF proto-oncogene serine/threonine-protein kinase (Homo sapiens) (UniProt P04049); assay: Inhibition of C-RAF (unknown origin) at 1 uM in presence of ATP relative to control; values are per cent of control
[25] = target: Calcium/calmodulin-dependent protein kinase type II subunit delta (Homo sapiens) (UniProt Q13557); assay: Inhibition of CAMK2d (unknown origin) at 1 uM in presence of ATP relative to control; values are per cent of control
[26] = target: Mitogen-activated protein kinase 13 (Homo sapiens) (UniProt O15264); assay: Inhibition of […] (unknown origin) at 1 uM in presence of ATP relative to control; values are per cent of control
[27] = target: Mitogen-activated protein kinase 12 (Homo sapiens) (UniProt P53778); assay: Inhibition of p38gamma (unknown origin) at 1 uM in presence of ATP relative to control; values are per cent of control
[28] = target: FKBP12A/mTOR (Homo sapiens) (UniProt P62942+P42345); assay: Inhibition of mTOR/FKBP12 (unknown origin) at 1 uM in presence of ATP relative to control; values are per cent of control
Sequence of FKBP12A/mTOR (Homo sapiens) (P62942 2-108 limits assumed, other chains not shown): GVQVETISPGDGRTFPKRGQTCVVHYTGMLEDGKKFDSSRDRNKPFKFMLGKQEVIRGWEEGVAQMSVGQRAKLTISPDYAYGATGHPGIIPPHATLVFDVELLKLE

Sequence of RAF proto-oncogene serine/threonine-protein kinase (Homo sapiens) (P04049 whole entry): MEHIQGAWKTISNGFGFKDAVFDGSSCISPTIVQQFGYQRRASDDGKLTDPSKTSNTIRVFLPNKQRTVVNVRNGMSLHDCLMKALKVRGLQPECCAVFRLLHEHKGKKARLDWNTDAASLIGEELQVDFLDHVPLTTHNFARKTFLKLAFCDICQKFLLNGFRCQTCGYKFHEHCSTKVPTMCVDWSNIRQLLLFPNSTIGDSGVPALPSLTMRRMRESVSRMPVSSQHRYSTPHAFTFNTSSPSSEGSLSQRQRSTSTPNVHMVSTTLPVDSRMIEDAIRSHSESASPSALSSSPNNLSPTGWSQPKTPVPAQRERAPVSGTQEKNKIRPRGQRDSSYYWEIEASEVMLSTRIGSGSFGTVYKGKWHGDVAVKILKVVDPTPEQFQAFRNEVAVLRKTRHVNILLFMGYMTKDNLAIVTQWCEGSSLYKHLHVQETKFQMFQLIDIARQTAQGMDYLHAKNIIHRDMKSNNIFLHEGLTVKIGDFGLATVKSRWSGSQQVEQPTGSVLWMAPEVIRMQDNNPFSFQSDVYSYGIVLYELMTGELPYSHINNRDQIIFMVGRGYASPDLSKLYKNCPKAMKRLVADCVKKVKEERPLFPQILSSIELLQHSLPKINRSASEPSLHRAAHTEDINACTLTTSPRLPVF
Sequence of Myotonin-protein kinase (Homo sapiens) (Q09013 whole entry): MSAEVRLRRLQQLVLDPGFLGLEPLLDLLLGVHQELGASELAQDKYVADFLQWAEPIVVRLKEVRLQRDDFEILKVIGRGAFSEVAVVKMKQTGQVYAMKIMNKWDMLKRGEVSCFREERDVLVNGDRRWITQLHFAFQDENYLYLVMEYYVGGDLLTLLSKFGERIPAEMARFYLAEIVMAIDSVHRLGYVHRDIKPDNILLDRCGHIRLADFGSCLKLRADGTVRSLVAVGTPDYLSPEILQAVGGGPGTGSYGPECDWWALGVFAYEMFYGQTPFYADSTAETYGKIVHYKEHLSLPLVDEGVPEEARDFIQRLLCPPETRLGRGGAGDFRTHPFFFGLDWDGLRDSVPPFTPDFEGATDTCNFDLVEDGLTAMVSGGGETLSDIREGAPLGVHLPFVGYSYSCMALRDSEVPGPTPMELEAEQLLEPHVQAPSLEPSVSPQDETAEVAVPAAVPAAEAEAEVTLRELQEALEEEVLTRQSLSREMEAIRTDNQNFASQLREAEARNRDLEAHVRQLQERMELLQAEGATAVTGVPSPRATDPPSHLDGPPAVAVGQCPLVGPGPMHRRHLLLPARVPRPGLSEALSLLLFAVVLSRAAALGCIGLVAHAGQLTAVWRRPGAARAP
Sequence of Tyrosine-protein kinase ITK/TSK (Homo sapiens) (Q08881 whole entry): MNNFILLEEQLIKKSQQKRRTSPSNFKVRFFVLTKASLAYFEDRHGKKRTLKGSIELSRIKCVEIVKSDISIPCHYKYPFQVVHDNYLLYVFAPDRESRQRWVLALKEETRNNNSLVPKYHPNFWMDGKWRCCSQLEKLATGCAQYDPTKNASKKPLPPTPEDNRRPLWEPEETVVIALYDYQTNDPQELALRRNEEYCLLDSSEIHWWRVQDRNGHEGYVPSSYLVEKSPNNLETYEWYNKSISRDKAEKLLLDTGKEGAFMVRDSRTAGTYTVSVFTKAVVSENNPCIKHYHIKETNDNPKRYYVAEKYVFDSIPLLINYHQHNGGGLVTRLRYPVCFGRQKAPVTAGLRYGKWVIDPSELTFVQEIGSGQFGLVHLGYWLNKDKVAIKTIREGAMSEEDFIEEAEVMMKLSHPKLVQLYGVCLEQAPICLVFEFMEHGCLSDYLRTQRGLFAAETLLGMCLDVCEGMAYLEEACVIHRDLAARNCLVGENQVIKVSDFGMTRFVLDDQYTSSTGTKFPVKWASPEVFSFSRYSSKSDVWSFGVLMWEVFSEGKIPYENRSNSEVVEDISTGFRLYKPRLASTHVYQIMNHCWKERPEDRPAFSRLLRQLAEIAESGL
Sequence of Rhodopsin kinase GRK7 (Homo sapiens) (Q8WTQ7 whole entry): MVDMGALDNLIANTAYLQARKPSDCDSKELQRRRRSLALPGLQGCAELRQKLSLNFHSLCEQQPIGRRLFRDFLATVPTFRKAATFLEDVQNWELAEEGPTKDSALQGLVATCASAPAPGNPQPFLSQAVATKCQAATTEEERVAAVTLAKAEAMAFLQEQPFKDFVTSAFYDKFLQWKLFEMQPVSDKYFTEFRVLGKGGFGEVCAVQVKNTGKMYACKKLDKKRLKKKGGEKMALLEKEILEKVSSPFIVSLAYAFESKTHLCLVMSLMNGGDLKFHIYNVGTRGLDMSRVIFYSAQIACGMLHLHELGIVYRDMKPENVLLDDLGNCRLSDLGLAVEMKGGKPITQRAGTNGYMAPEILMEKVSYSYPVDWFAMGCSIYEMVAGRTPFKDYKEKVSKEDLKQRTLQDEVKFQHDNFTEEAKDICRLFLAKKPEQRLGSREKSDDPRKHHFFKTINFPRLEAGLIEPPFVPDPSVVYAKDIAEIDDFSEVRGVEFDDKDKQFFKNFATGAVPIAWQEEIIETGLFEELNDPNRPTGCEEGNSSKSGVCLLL
Sequence of Serine/threonine-protein kinase MARK1 (Homo sapiens) (Q9P0L2 whole entry, looked up): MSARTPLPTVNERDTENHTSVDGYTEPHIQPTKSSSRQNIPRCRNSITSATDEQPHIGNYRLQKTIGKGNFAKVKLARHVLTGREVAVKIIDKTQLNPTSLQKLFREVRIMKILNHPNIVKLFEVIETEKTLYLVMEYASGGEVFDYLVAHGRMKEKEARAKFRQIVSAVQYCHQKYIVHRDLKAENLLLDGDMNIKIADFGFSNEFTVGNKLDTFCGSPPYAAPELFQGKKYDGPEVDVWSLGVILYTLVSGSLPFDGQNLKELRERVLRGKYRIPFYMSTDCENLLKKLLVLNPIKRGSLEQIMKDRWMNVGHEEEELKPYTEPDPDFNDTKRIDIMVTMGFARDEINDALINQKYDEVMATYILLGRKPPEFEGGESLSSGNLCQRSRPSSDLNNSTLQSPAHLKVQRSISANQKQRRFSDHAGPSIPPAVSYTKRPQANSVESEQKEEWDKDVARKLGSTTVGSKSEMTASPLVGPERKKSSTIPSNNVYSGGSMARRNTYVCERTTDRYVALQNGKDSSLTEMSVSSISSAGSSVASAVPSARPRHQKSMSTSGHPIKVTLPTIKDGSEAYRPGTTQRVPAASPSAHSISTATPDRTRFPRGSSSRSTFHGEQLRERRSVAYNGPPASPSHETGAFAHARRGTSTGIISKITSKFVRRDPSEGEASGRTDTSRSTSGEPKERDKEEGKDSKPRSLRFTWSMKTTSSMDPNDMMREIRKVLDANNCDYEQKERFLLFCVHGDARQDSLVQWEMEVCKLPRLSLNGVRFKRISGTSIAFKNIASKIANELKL
Sequence of Death-associated protein kinase 1 (Homo sapiens) (P53355 whole entry, looked up): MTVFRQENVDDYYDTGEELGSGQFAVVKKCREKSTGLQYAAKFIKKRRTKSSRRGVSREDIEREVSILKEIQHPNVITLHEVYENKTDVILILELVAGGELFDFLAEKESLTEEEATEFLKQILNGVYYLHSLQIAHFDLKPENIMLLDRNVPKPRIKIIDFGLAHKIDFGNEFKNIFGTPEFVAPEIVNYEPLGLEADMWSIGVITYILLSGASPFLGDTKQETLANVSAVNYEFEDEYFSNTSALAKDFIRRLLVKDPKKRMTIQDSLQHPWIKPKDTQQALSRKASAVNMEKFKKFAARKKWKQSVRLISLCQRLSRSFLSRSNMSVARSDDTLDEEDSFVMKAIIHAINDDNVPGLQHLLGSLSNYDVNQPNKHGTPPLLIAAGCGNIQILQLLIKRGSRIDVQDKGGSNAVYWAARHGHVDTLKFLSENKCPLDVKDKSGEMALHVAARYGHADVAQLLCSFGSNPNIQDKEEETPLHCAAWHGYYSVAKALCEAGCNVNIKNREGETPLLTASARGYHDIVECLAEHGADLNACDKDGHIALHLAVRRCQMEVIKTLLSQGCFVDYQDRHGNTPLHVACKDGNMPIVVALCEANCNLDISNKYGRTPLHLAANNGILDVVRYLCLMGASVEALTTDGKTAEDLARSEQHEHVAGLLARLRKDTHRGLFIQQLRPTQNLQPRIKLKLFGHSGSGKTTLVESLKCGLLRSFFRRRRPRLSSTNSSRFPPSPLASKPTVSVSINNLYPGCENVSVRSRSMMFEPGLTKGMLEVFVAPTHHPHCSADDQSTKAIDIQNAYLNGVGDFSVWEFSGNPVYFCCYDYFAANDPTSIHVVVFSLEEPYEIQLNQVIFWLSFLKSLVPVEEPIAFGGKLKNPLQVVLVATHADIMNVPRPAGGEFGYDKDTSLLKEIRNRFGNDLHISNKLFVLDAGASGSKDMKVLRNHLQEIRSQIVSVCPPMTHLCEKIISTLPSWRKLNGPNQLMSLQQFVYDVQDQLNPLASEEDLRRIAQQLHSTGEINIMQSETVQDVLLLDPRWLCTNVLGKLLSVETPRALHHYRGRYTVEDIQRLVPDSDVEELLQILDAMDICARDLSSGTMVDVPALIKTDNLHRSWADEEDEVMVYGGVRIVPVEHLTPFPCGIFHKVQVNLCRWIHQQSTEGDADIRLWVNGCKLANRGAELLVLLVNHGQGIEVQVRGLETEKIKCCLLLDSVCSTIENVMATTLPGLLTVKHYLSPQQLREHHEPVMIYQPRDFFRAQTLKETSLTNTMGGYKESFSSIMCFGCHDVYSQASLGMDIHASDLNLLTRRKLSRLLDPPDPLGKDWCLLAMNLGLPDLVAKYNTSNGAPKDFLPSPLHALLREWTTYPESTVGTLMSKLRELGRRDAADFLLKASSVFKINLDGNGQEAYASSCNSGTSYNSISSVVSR

- IC50 [1]: 17.5 nM
- residual activity [11]: 90.5%
- residual activity [12]: 106%
- residual activity [13]: 110%
- residual activity [14]: 70.5%
- residual activity [15]: 110%
- residual activity [16]: 103%
- residual activity [17]: 102%
- residual activity [18]: 89%
- residual activity [20]: 94%
- residual activity [21]: 100%
- residual activity [22]: 97%
- residual activity [23]: 116%
- residual activity [24]: 92.5%
- residual activity [25]: 100%
- residual activity [26]: 110%
- residual activity [27]: 104%
- residual activity [28]: 102%
SMILES: C[C@@H]1CCc2ncc(F)cc2[C@H]2CCCN2c2ccn3ncc(c3n2)C(=O)N1 [SELITRECTINIB]
- inhibition [2]: Active
- inhibition [3]: inactive
- inhibition [4]: inactive
- inhibition [5]: inactive
- inhibition [6]: inactive
- inhibition [7]: inactive
- inhibition [8]: inactive
- inhibition [9]: inactive
- inhibition [10]: inactive
- residual activity [19]: 120%
